# Square brackets hold non-standard residues; d marks the D form. Peptide text beside a SMILES is read from it. Orn = NCCC[C@H](N)C(=O)O
# How the values were obtained:
# Experiment in all cases: Mean activity
# Format in all cases: cell-based
# Gram-negative bacteria = conditions: geometric mean of MIC values (after 24 h) against 7 Gram-negative strains
# fungi = conditions: geometric mean of MIC values (after 24 h) against 2 fungal strains
# Gram-positive bacteria = conditions: geometric mean of MIC values (after 24 h) against 7 Gram-positive strains
smiles,measurement,setting,value
"CC(C)C[C@@H]1NC(=O)[C@H](CCCN)NC(=O)[C@H](C(C)C)NC(=O)[C@@H]2CCCN2C(=O)[C@@H](Cc2ccccc2)NC(=O)[C@H](CC(C)C)NC(=O)[C@H](CCCN)NC(=O)[C@H](C(C)C)NC(=O)[C@@H]2CCCN2C(=O)[C@@H](Cc2ccccc2)NC1=O [GS, gramicidin S] (cyclo(V[Orn]L[dF]PV[Orn]L[dF]P))","Mean Activity, Gram-negative bacteria",Gram-negative bacteria,23.8 µg/mL
same,"Mean activity, fungi",fungi,2.8 µg/mL
same,"Mean activity, Gram-positive bacteria",Gram-positive bacteria,1.4 µg/mL

# — paper PMC2759687 (Journal of medicinal chemistry, 2009)
